These results are taken from ChEMBL document CHEMBL1932923, “Structure-activity relationships for naturally occurring coumarins as β-secretase inhibitor” (Bioorg Med Chem, 2012).

The structures appear in SMILES notation. The source made the active and inactive calls. The rule behind the calls is not given here. Non-standard residues stand in square brackets, D forms with d. Residues, ends and D or L forms follow the SMILES beside them. Sta = CC(C)C[C@H](N)[C@@H](O)CC(=O)O

The first experiment deals with T1, Beta-secretase 1 (Homo sapiens, UniProt P56817). As to the kind of experiment: Inhibition of recombinant human BACE1 using Rh-EVNLDAEFK as substrate after 60 mins by fluorescence quenching assay.
T1 sequence (P56817 whole entry): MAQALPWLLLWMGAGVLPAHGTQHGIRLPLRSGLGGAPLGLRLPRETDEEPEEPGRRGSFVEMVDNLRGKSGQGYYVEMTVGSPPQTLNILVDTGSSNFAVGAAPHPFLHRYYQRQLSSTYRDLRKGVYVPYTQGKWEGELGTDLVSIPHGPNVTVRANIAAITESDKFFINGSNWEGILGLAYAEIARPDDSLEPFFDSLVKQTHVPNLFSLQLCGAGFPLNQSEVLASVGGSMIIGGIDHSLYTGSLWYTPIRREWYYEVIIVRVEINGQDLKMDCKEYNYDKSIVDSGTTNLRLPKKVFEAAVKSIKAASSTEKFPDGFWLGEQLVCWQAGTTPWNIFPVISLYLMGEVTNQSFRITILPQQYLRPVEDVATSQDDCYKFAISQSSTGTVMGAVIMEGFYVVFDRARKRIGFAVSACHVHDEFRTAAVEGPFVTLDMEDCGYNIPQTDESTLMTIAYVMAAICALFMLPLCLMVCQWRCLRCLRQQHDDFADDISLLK
As a reminder, the IC50 is the concentration needed to halve the response being measured. Consider `CC(C)=CCOc1ccc2ccc(=O)oc2c1` [7-PRENYLOXYCOUMARIN], for which the IC50 was over 500 µM.
Same read-out and setting: then `COc1c2occc2c(OC/C=C(\C)CCC=C(C)C)c2ccc(=O)oc12`, with 9.9 µM; and `COc1ccc2ccc(=O)oc2c1CC=C(C)C` [OSTHOLE], with over 500 µM.
`COc1c2occc2cc2ccc(=O)oc12` [METHOXSALEN]: the IC50 was over 500 µM.
On the same count and under the same terms, then `CC(C)=CC(=O)O[C@H]1Cc2cc3ccc(=O)oc3cc2OC1(C)C` [DECURSIN], with over 500 µM; and `COc1cc2oc(=O)ccc2cc1CC=C(C)C` [SUBEROSIN], with over 500 µM; and `CC[C@H](C)[C@H](NC(=O)[C@H](CCC(=O)O)NC(=O)[C@H](CCC(=O)O)NC(=O)[C@@H](NC(=O)[C@@H](N)CCCCN)[C@@H](C)O)C(=O)N[C@@H](CO)C(=O)N[C@@H](CCC(=O)O)C(=O)N[C@H](C(=O)N[C@@H](CC(N)=O)C(=O)N[C@@H](CC(C)C)[C@@H](O)CC(=O)N[C@H](C(=O)N[C@@H](C)C(=O)N[C@@H](CCC(=O)O)C(=O)N[C@@H](Cc1ccccc1)C(=O)O)C(C)C)C(C)C` (H-KTEEISEVN[Sta]VAEF-OH), with 0.2 µM.
For `O=c1ccc2ccc3occc3c2o1` [ANGELICIN], the IC50 was over 500 µM.
Still for that read-out and setting: then `CC(C)=CCC/C(C)=C/COc1ccc2ccc(=O)oc2c1` [AURAPTENE], with 345 µM; and `COc1c2ccoc2c(OC/C=C(\C)CCC=C(C)C)c2oc(=O)ccc12`, with 11.1 µM.
Same read-out and setting: the value for `COc1c2occc2c(OCC=C(C)C)c2ccc(=O)oc12` [KINIDILIN] was 344 µM; that for `O=c1ccc2ccccc2o1` [COUMARIN] was over 500 µM.
On to `CC(C)=CCC/C(C)=C/COc1c2ccoc2cc2oc(=O)ccc12` [BERGAMOTTIN], for which the half-maximal inhibitory concentration (IC50) turned out to be 32.2 µM.
Still for that read-out and setting: the value for `O=c1ccc2ccc(O)cc2o1` [UMBELLIFERONE] was over 500 µM; that for `CC1(C)C=Cc2cc3ccc(=O)oc3cc2O1` [XANTHYLETIN] was over 500 µM; that for `CC(C)(O)[C@H](O)COc1c2ccoc2cc2oc(=O)ccc12` [OXYPEUCEDANIN HYDRATE] was over 500 µM.
Regarding `CC(C)=CCc1cc2ccc(=O)oc2cc1O` [DEMETHYLSUBEROSIN], the half-maximal inhibitory concentration (IC50) came out at 413 µM.
On the same count and under the same terms, then `CC1(C)O[C@@H]1COc1c2occc2cc2ccc(=O)oc12` [HERACLENIN], with 444 µM.
On to `O=c1ccc2cc3ccoc3cc2o1` [PSORALEN], for which the IC50 is over 500 µM.
On the same count and under the same terms, then `COc1c2ccoc2c(OC)c2oc(=O)ccc12` [ISOPIMPINELLIN], with over 500 µM; and `CC1(C)CCc2cc3ccc(=O)oc3cc2O1` [DIHYDROXANTHYLETIN], with over 500 µM; and `CC1(C)C=Cc2c(ccc3ccc(=O)oc23)O1` [SESALIN], with over 500 µM.
On the same count and under the same terms, the value for `O=c1ccc2cc3ccoc3c(O)c2o1` [XANTHOTOXOL] was over 500 µM; that for `COc1cc2ccc(=O)oc2cc1OC` [SCOPARONE] was over 500 µM; that for `CC(C)(O)[C@@H]1Cc2cc3ccc(=O)oc3cc2O1` [MARMESIN] was over 500 µM.
With `O=c1ccc2c(O)c3ccoc3cc2o1` [BERGAPTOL], the IC50 is over 500 µM.
In the case of `COc1c2ccoc2c(OC[C@H]2OC2(C)C)c2oc(=O)ccc12` [BYAKANGELICOL], the IC50 is 105 µM.
Take `COc1ccc2ccc(=O)oc2c1` [HERNIARIN]: the IC50 was over 500 µM.
Still for that read-out and setting: then `CC1(C)Oc2cc3oc(=O)ccc3cc2C[C@@H]1O` [DECURSINOL], with over 500 µM.
Still for that read-out and setting: then `CC(C)=CCC/C(C)=C/COc1c2occc2cc2ccc(=O)oc12`, with 20.4 µM; and `COc1c2ccoc2cc2oc(=O)ccc12` [BERGAPTEN], with over 500 µM; and `CC(C)(O)[C@H](O)COc1c2occc2cc2ccc(=O)oc12` [HERACLENOL], with over 500 µM.
Same read-out and setting: the value for `CC(C)=CCOc1c2ccoc2c(OCC=C(C)C)c2oc(=O)ccc12` was over 500 µM.
Regarding `CC1(C)Oc2ccc3ccc(=O)oc3c2CC1O` (centres undefined) [LOMATIN], the 50% inhibitory concentration (IC50) is over 500 µM.
Still for that read-out and setting: the value for `CC(C)=CCc1c(O)ccc2ccc(=O)oc12` [OSTHENOL] was over 500 µM; that for `C/C=C(\C)C(=O)O[C@H]1Cc2cc3ccc(=O)oc3cc2OC1(C)C` [DECURSINOL TIGLATE] was over 500 µM; that for `COc1c2ccoc2c(OC[C@@H](O)C(C)(C)O)c2oc(=O)ccc12` [BYAKANGELICIN] was 220 µM.
Regarding `COc1c2ccoc2c(OCC=C(C)C)c2oc(=O)ccc12` [PHELLOPTERIN], the IC50 amounted to 143 µM.
Same read-out and setting: the value for `CC(C)(O)[C@@H]1Cc2c(ccc3ccc(=O)oc23)O1` [COLUMBIANETIN] was over 500 µM; that for `COc1c2ccoc2c(O)c2oc(=O)ccc12` was over 500 µM; that for `CC1(C)O[C@H]1COc1c2ccoc2cc2oc(=O)ccc12` [OXYPEUCEDANIN] was 359 µM.
For the compound `CC(C)=CCOc1c2ccoc2c(O)c2oc(=O)ccc12`, the IC50 is over 500 µM.
On the same count and under the same terms, then `CC(C)=CCOc1c2occc2cc2ccc(=O)oc12` [PENTOSALEN], with 91.8 µM.
`O=c1ccc2c(O)c3ccoc3c(O)c2o1`: the IC50 is over 500 µM.
Same read-out and setting: then `CC(C)=CCC/C(C)=C/COc1c2ccoc2c(O)c2oc(=O)ccc12`, with over 500 µM.

The target in another experiment is T1, Beta-secretase 1. As to the kind of experiment: Inhibition of recombinant human BACE1 assessed as dissociation constant of enzyme-inhibitor complex using Rh-EVNLDAEFK as substrate by Dixon and Cornish-Bowden plots analysis.
Usually Ki stands for a measure of affinity in units of concentration, obtained from inhibition or displacement. On to `COc1c2occc2c(OC/C=C(\C)CCC=C(C)C)c2ccc(=O)oc12`, for which the Ki was found to be 103 µM.
Turning to `CC(C)=CCC/C(C)=C/COc1c2ccoc2cc2oc(=O)ccc12` [BERGAMOTTIN], the inhibitory constant (Ki) was 34.8 µM.
As for `CC(C)=CCC/C(C)=C/COc1c2occc2cc2ccc(=O)oc12`, the Ki is 61.6 µM.

In a further experiment the target is T1, Beta-secretase 1. As to the kind of experiment: Mixed type inhibition of recombinant human BACE1 using Rh-EVNLDAEFK as substrate by Dixon and Cornish-Bowden plots analysis.
Take `COc1c2occc2c(OC/C=C(\C)CCC=C(C)C)c2ccc(=O)oc12`: the inhibition entry was “Active”.
As for `CC(C)=CCC/C(C)=C/COc1c2ccoc2cc2oc(=O)ccc12` [BERGAMOTTIN], the inhibition entry was “Active”.

Another experiment has as its target T1, Beta-secretase 1. Nature of the experiment: Non-competitive inhibition of recombinant human BACE1 using Rh-EVNLDAEFK as substrate by Dixon and Cornish-Bowden plots analysis.
Consider `CC(C)=CCC/C(C)=C/COc1c2occc2cc2ccc(=O)oc12`, for which the inhibition entry is “Active”.

Another experiment addresses T1, Beta-secretase 1. As to the kind of experiment: Inhibition of recombinant human BACE1 assessed as dissociation constant of enzyme-substrate-inhibitor complex using Rh-EVNLDAEFK as substrate by Dixon and Cornish-Bowden plots analysis.
On to `COc1c2occc2c(OC/C=C(\C)CCC=C(C)C)c2ccc(=O)oc12`, for which the Ki was 13.7 µM.
Still for that read-out and setting: then `CC(C)=CCC/C(C)=C/COc1c2ccoc2cc2oc(=O)ccc12` [BERGAMOTTIN], with 0.7 µM; and `CC(C)=CCC/C(C)=C/COc1c2occc2cc2ccc(=O)oc12`, with 61.9 µM.
